Data set [1] can be described thus: Sodium binding affinity (mid-point of response) and sodium-dependent intensity of probes bound to contact lenses. The note with it: lens not named; read-out: binding constant after addition of linker, hydrophobic moiety and/or binding to the lenses. The procedure:
(§1) Fluorescence Spectroscopic Measurements. Fluorescence intensities and intensity decays were measured using a Varian™ Eclipse 4 spectrofluorometer and a FluoTime300 instrument from PicoQuant™ (Berlin, Germany) and analyzed with the EasyTau™ software. The excitation source was a 473 nm laser diode with a repetition rate of 40 MHZ and a pulse width less than 100 ps. In other embodiments, the excitation source for SG-PL was at 495 nm from a Solea™ supercontinuum laser (PicoQuant™, Germany) and a 375 nm laser diode (PDL 375, PicoQuant™), a repetition rate of 40 MHz, and a pulse width less than 100 ps. Some intensity and lifetime measurements for SG-PL (as indicated) were performed using Alba V confocal fluorescence lifetime microscopy, FLIM (ISS, Urbana, Ill.), with excitation source of a 473 nm laser diode with a repetition rate of 40 MHz and a pulse width near 250 ps.
(§2) Sodium Binding Affinity. The sodium affinity of the labeled lenses can be described in terms of the dissociation constant. The dissociation reaction for the probe complexed with Na+ can be written as
P—Na^+↔P+Na^+ (equation 4) […]
Binding affinity curves of SG-PL with sodium in Biofinity™ and MyDay™ lenses were produced by plotting the normalized intensities with respect to the added sodium concentrations. The curves were measured by intensities at peak maximum (FIG. 38A) or amplitude-weighted lifetimes (FIG. 38B). […]

A short description of data set [2]: Sodium binding affinity (mid-point) of SG in buffer. The note with it: read-out: Na^+ binding constant / binding affinity (mid-point). The procedure: as §1, §2
P—Na^+↔P+Na^+ (equation 4)
where P is the free probe with no bound sodium in the dissociation constant KD is given. The ratio of sodium free and sodium bound probe is given by
The binding affinity is given as the mid-point (MP) of the ion-dependent response where the spectral change is 50% complete. […]

The nature of data set [3]: Chloride quenching (Stern-Volmer) of SPQ-C18 in contact lenses. It counts as physicochemical. The procedure:
Quenching by Chloride. […] The intensities (I) and lifetimes (6) are analyzed using the Stern-Volmer equation, where F0 and τ0 are the intensities and lifetimes in the absence of chloride, and K is the quenching constant and the inverse of the [Cl^-] needed for 50% quenching. For collisional quenching, the value of F0/F and τ0/τ are typically the same. In solution, in the absence of lenses, the value of K=kq τ0 can be used to calculate the biomolecular quenching constant kq and the quenching efficiency. In the lenses, the [Cl-] may not be the same as in the bulk solution, but kq in the lenses is estimated by assuming the same concentration of chloride around the SPQ moiety in the lenses and in bulk solutions. Chloride-sensitive lenses were prepared using SPQ-C18. The quinolinium moiety in SPQ-C18 can be used for chloride sensing in tears. Its unquenched lifetime near 18.5 ns (see Table 14 and Table 15, below) which results in significant changes up to chloride concentrations of 220 mM, which is well above the physiological range. BiofinityTM and […] lenses labeled with SPQ-C18 were both found to display significant quenching at physiological concentrations of chloride near 120 mM. The emission intensities of SPQ-C18 were quenched by about 50% at this chloride concentration (FIG. 31 and FIG. 32). The emission spectra are not changed by quenching so intensity-based sensing may be different in a realworld application. […] Chloride quenching was analyzed using the Stern-Volmer equation for intensities and lifetimes (equations 7 and 8). In this analysis, we used the average lifetimes (equation 2) that is more appropriate for quenching. […] In contrast quenching of SP-PL, both intensity and lifetime, continue to decrease as the chloride concentration is increased. At the molecular level, the most interesting term is the biomolecular quenching constant kq. This value can be understood by comparison with quenching of a fluorophore in solution without any steric barriers. […] This approach for SPQ-C18 in lenses is shown in both intensities and amplitude-weighted lifetimes (FIG. 35A and FIG. 35B). […] This behavior is different from SG-PL where the binding site can be saturated at high Na^+ concentrations. In contrast, quenching of OD-MQB, both intensity and lifetime, continue to decrease as the chloride concentration increased. The steady-state intensities and intensity decays can be used to calculate the bimolecular quenching constant kq. This value can be interpreted by comparison with quenching of a fluorophore in solution without any steric barriers. […] This is the same structure of SPQ-C18 but with a shorter, three carbon propenyl chain. The unquenched lifetime (τ0) of P-MQB was 26 ns, and the Stern-Volmer constant K was 140 M^-1. […] Emission spectra and time-dependent decays were obtained (data not shown). Stern-Volmer plots were obtained in water and in a Stenfilcon A (AspireTM) contact lens by plotting the normalized intensities with respect to the added chloride concentrations.

Where [4] appears, read: Stenfilcon A (Aspire™) contact lens.

Several values for one entry are separate records, joined by “and”; a condition that tells them apart may be missing. Equal values may be shown once.

Regarding `COc1cc(N2CCOCCOCCN(c3cc(OC)c(NC(=O)c4ccc(-c5c6cc(Cl)c(=O)cc-6oc6cc([O-])c(Cl)cc56)c(C(=O)[O-])c4)cc3OC)CCOCC2)c(OC)cc1NC(=O)c1ccc(-c2c3cc(Cl)c(=O)cc-3oc3cc([O-])c(Cl)cc23)c(C(=O)[O-])c1.C[N+](C)(C)C.C[N+](C)(C)C.C[N+](C)(C)C.C[N+](C)(C)C` [SG], the Kd is roughly 100 mM in data set [1]; ~10 mM and ~6.5 mM in data set [2].
Turning to `CCCCCCCCCCCCCCCCCC[n+]1cccc2cc(OC)ccc21` [SPQ-C18, N-Octadecyl-6-methoxyquinolinium bromide], in data set [3], the “reduction of quenching constant, in lens versus SPQ-C3 in buffer” value came out at 10 fold. Also, in data set [3] (Biofinity), the “k (bimolecular quenching constant)” value is recorded as 0.41×10^9 m-1 sec-1 and the “quenching constant K from lifetime measurement” value was 8.12 M⁻¹. Moreover, in data set [3] (MyDay), the “k (bimolecular quenching constant)” value is listed as 0.37×10^9 m-1 sec-1 and the “quenching constant K from lifetime measurement” value is 7.44 M⁻¹. For the same compound, in data set [3] (setting [4]), the bimolecular quenching constant stood at 1e+09 M⁻¹ s⁻¹ and the “decrease in the collision rate versus SPQ-C3 in water” value stood at 5.4. For the same compound, the “quenching of emission intensities” value in data set [3] (chloride near 120 mM, Biofinity and MyDay) is given as “about 50%”. Moreover, the unquenched lifetime in data set [3] (in lenses) is given as roughly 18.5 ns.

These data come from patent US20220050096A1, “ANALYTE-SENSITIVE PROBES AND CONTACT LENS FOR DIAGNOSIS OF OCULAR PATHOLOGIES” (University Of Maryland, Baltimore, priority 2020, published 2022).
